Assays:
[1] = Physical and chemical stability on storage (PXRD, Karl Fischer water content, HPLC purity); conditions: for change in PXRD pattern on storage / degradation on storage / increase in moisture content on storage / physical and chemical stability (conclusion): 6 months at 40° C./75% RH and at 25° C./60% RH
Procedure: The physical and chemical stability of dolutegravir sodium Form-M2 and Form-M4 was determined by storing the samples at 40° C./75% relative humidity (RH) and at 25° C./60% RH for 6 months. At different time points during storage, the crystal structure of the material was analyzed by PXRD, the water content by Karl Fischer, and by HPLC for final purity.

[2] = Thermodynamic stability of the crystalline form; assay type: physicochemical
[3] = storage at 25° C./60% RH, 1 month
[4] = storage at 25° C./60% RH, 3 months
[5] = storage at 25° C./60% RH, 6 months
[6] = storage at 25° C./60% RH, Initial
[7] = storage at 40° C./75% RH, 1 month
[8] = storage at 40° C./75% RH, 3 months
[9] = storage at 40° C./75% RH, 6 months
[10] = storage at 40° C./75% RH, Initial

SMILES | change in PXRD pattern on storage [1] | degradation on storage [1] | increase in moisture content on storage [1] | physical and chemical stability (conclusion) [1] | HPLC purity (%) [1, 3] [%] | PXRD (polymorph found) [1, 3] | HPLC purity (%) [1, 4] [%] | PXRD (polymorph found) [1, 4] | HPLC purity (%) [1, 5] [%] | PXRD (polymorph found) [1, 5] | HPLC purity (%) [1, 6] [%] | PXRD (polymorph found) [1, 6] | HPLC purity (%) [1, 7] [%] | PXRD (polymorph found) [1, 7] | HPLC purity (%) [1, 8] [%] | PXRD (polymorph found) [1, 8] | HPLC purity (%) [1, 9] [%] | PXRD (polymorph found) [1, 9] | HPLC purity (%) [1, 10] [%] | PXRD (polymorph found) [1, 10] | further results
C[C@@H]1CCO[C@H]2Cn3cc(C(=O)NCc4ccc(F)cc4F)c(=O)c([O-])c3C(=O)N12.[Na+] [Form-M2, sodium (4R, 12aS)-9-((2,4-difluorobenzyl)carbamoyl)-4-methyl-6,8-dioxo-3,4,6,8, 12, 12a-hexahydro-2H-pyrido[1′,2′:4,5]pyrazino[2,1-b][1,3]oxazin-7-olate] | no change in PXRD pattern | no significant degradation | no substantial increase in moisture content | physically and chemically stable | 99.6 | Form-M2 | 99.5 | Form-M2 | 99.5 | Form-M2 | 99.7 | Form-M2 | 99.6 | Form-M2 | 99.5 | Form-M2 | 99.5 | Form-M2 | 99.7 | Form-M2 | 
C[C@@H]1CCO[C@H]2Cn3cc(C(=O)NCc4ccc(F)cc4F)c(=O)c([O-])c3C(=O)N12.[Na+] [Form-M3, sodium (4R, 12aS)-9-((2,4-difluorobenzyl)carbamoyl)-4-methyl-6,8-dioxo-3,4,6,8, 12, 12a-hexahydro-2H-pyrido[1′,2′:4,5]pyrazino[2,1-b][1,3]oxazin-7-olate] |  |  |  |  |  |  |  |  |  |  |  |  |  |  |  |  |  |  |  |  | thermodynamic stability [2]: only metastable and not thermodynamically stable
C[C@@H]1CCO[C@H]2Cn3cc(C(=O)NCc4ccc(F)cc4F)c(=O)c([O-])c3C(=O)N12.[Na+] [Form-M4, sodium (4R, 12aS)-9-((2,4-difluorobenzyl)carbamoyl)-4-methyl-6,8-dioxo-3,4,6,8, 12, 12a-hexahydro-2H-pyrido[1′,2′:4,5]pyrazino[2,1-b][1,3]oxazin-7-olate] | no change in PXRD pattern | no significant degradation | no substantial increase in moisture content | physically and chemically stable | 99.17 | Form-M4 | 99.10 | Form-M4 | 99.0 | Form-M4 | 99.24 | Form-M4 | 99.2 | Form-M4 | 99.1 | Form-M4 | 99.0 | Form-M4 | 99.2 | Form-M4 | 

From patent publication US10087193B2, “Crystalline forms of dolutegravir sodium” (Mylan Laboratories Ltd., priority 2014, dated 2018)
